Drawing on patent publication US7192924B2, “Corticotropin releasing factor 2 receptor agonists” (priority 2002, dated 2007), this text covers EC50 for 4 molecules.

Peptide text beside a SMILES is read from it.

Assay [1] addresses T1, CRF2R (Homo sapiens, UniProt Q13324).
T1 sequence (Q13324 1-411): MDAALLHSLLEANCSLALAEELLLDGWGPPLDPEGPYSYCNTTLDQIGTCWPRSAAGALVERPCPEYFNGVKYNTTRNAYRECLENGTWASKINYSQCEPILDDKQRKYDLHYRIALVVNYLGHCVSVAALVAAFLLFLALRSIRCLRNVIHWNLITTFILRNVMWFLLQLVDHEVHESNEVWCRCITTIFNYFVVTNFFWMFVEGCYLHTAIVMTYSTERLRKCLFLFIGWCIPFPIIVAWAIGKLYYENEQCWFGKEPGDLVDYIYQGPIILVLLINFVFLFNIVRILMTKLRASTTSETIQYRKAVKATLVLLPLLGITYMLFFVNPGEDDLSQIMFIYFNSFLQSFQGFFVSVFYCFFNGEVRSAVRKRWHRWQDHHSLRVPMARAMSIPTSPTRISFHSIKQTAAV
Kind of assay: CRF2R agonist activity (EC50, Emax), called comparative CRF binding. Conditions: read-out: CRF2R EC50. It is filed as cell-based. The text has this:
(§1) The pharmacological activity and selectivity of the peptides of present invention can be determined using published test procedures. See, e.g, U.S. patent application Ser. No. 09/799,978. Because CRF2R and CRF1R are homologous proteins, it is expected that a certain proportion of agonists for CRF2R will also function as agonists of CRF1R. As discussed above, activation of CRF1R induces activation of the HPA axis since increased corticosteroid production leads to skeletal muscle atrophy. In most cases in which an increase in muscle mass or function is desired, it is not desirable to activate the HPA axis.
(§2) Because it is desirable to discriminate binding between CRF2R, as compared with CRF1R, the assays described above may be conducted using a cell, or membrane from a cell, which expresses only CRF2R or the assays can be conducted with a recombinant source of CRF2R. Cells expressing both forms of CRFR may be modified using homologous recombination to inactivate or otherwise disable the CRF1R gene. Alternatively, if the source of CRFR contains more than one CRFR type, the background signal produced by the receptor which is not of interest must be subtracted from the signal obtained in the assay. […] Known antagonists of CRFRs include, but, are not limited to, antalarmin (CRF1R selective), antisauvagine-30 (CRF2R selective) and astressin (nonselective for CRF1R/CRF2R).
(§3) Cell-based assays include the steps of contacting cells which express CRF1R or CRF2R with a peptide of the present invention or control and measuring activation of the CRFR by measuring the expression or activity of components of the CRFR signal transduction pathways.
(§4) As described in the background section above, CRFRs appear to couple through several different pathways including Gαs, Gαq or Gαi, depending upon the cell type. It is thought that agonist activation of CRFR allows the receptor to signal via any of these pathways, provided that the necessary pathway components are present in the particular cell type. Thus, to assay a particular peptide of the present invention for CRFR activation, an assay can use any of the signal transduction pathways as the readout even if the relevant cell type for treatment, in vivo, couples CRFR to skeletal muscle atrophy via a different pathway. […] Assays for measuring activation of these signaling pathways are known in the art.
(§5) For example, after contact with a peptide of the present invention, lysates of the cells can be prepared and assayed for induction of cAMP. cAMP is induced in response to Gαs activation. Because Gαs is activated by receptors other than CRFR and because a test peptide may be exerting its effect through CRFRs or by another mechanism, two control comparisons are relevant for determining whether the peptide increases levels of cAMP via activation of a CRFR. One control compares the cAMP level of cells contacted with the peptide and the cAMP level of cells contacted with a control compound (i.e., the vehicle in which the peptide is dissolved).
(§6) In one example, cAMP induction is measured with the use of DNA constructs containing the cAMP responsive element linked to any of a variety of reporter genes can be introduced into cells expressing CRFRs. Such reporter genes include, but are not limited to, chloramphenicol acetyltransferase (CAT), luciferase, glucuronide synthetase, growth hormone, fluorescent proteins (e.g., Green Fluorescent Protein), or alkaline phosphatase. Following exposure of the cells to the peptide, the level of reporter gene expression can be quantitated to determine the peptide's ability to increase cAMP levels and thus determine the peptide's ability to activate the CRFR.
(§7) In addition to using cells expressing full length CRFRs, cells can be engineered which express CRFRs containing the ligand binding domain of the receptor coupled to, or physically modified to contain, reporter elements or to interact with signaling proteins.

Assay [2] addresses T2, CRF1R (Homo sapiens, UniProt P34998).
T2 sequence (P34998 24-415): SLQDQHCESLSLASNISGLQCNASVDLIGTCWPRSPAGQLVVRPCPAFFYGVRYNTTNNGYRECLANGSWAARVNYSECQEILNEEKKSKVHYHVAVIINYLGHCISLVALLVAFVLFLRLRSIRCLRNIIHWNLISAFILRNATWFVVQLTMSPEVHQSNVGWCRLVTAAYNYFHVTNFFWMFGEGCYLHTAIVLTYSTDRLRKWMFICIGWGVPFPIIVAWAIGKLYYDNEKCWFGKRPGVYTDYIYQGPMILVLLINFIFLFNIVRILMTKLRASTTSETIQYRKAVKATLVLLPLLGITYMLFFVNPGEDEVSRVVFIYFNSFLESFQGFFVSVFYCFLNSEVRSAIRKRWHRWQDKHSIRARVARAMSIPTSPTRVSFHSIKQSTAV
Nature of the assay: CRF1R agonist activity (EC50, Emax), called comparative CRF binding. The conditions noted are these: read-out: CRF1R EC50. It is filed as cell-based.
From the text: as §1, §2, §3, §4, §5, §6, §7

What is called EC50 is the midpoint of the concentration-response curve. In the case of `CC[C@H](C)[C@H](N)C(=O)N[C@H](C(=O)N[C@@H](CC(C)C)C(=O)N[C@@H](CO)C(=O)N[C@@H](CC(C)C)C(=O)N[C@@H](CC(=O)O)C(=O)N[C@H](C(=O)N1CCC[C@H]1C(=O)N[C@H](C(=O)NCC(=O)N[C@@H](CC(C)C)C(=O)N[C@@H](CC(C)C)C(=O)N[C@@H](CCC(N)=O)C(=O)N[C@@H](CCC(=O)O)C(=O)N[C@@H](CC(C)C)C(=O)N[C@@H](CC(C)C)C(=O)N[C@@H](CCC(=O)O)C(=O)N[C@@H](CCSC)C(=O)N[C@@H](C)C(=O)N[C@@H](CCCNC(=N)N)C(=O)N[C@@H](C)C(=O)N[C@@H](CCC(=O)O)C(=O)N[C@@H](CCC(N)=O)C(=O)N[C@@H](CC(C)C)C(=O)N[C@@H](C)C(=O)N[C@@H](CCC(N)=O)C(=O)N[C@@H](CCC(N)=O)C(=O)N[C@@H](C)C(=O)N[C@@H](Cc1c[nH]cn1)C(=O)N[C@@H](CO)C(=O)N[C@@H](CC(N)=O)C(=O)N[C@@H](CCCNC(=N)N)C(=O)N[C@@H](CCCCN)C(=O)N[C@@H](CC(C)C)C(=O)N[C@@H](CCSC)C(=O)N[C@@H](CCC(=O)O)C(=O)N[C@H](C(=O)N[C@H](C(N)=O)[C@@H](C)CC)[C@@H](C)CC)[C@@H](C)CC)C(C)C)C(C)C` [compound 1] (H-IVLSLDVPIGLLQELLEMARAEQLAQQAHSNRKLMEII-NH2; N-terminus assumed), the EC50 in assay [1] worked out at 31.5 nM; in assay [2], 783 nM.

`CC[C@H](C)[C@H](N)C(=O)N[C@H](C(=O)N[C@@H](CC(C)C)C(=O)N[C@@H](CO)C(=O)N[C@@H](CC(C)C)C(=O)N[C@@H](CC(=O)O)C(=O)N[C@H](C(=O)N1CCC[C@H]1C(=O)N[C@H](C(=O)NCC(=O)N[C@@H](CC(C)C)C(=O)N[C@@H](CC(C)C)C(=O)N[C@@H](CCC(N)=O)C(=O)N[C@H](C(=O)N[C@@H](CC(C)C)C(=O)N[C@@H](CC(C)C)C(=O)N[C@@H](CCC(=O)O)C(=O)N[C@@H](CCC(N)=O)C(=O)N[C@H](C(=O)N[C@@H](CCCCN)C(=O)N[C@@H](C)C(=O)N[C@@H](CC(=O)O)C(=O)N[C@@H](C)C(=O)N[C@@H](C)C(=O)N[C@@H](CCCNC(=N)N)C(=O)N[C@@H](CCC(=O)O)C(=O)N[C@@H](CCC(N)=O)C(=O)N[C@@H](C)C(=O)N[C@H](C(=O)N[C@H](C(=O)N[C@@H](CC(N)=O)C(=O)N[C@@H](C)C(=O)N[C@@H](CCCNC(=N)N)C(=O)N[C@H](C(=O)N[C@@H](CC(C)C)C(=O)N[C@@H](C)C(=O)N[C@@H](CCCNC(=N)N)C(=O)N[C@H](C(N)=O)C(C)C)[C@@H](C)CC)[C@@H](C)O)[C@@H](C)O)[C@@H](C)O)[C@@H](C)CC)[C@@H](C)CC)C(C)C)C(C)C` [compound 108] (H-IVLSLDVPIGLLQILLEQTKADAAREQATTNARILARV-NH2; N-terminus assumed): the results for the EC50 in assay [1] and in assay [2] were 79 nM and over 100 nM, respectively.

Take `CC[C@H](C)[C@H](N)C(=O)N[C@H](C(=O)N[C@@H](CC(C)C)C(=O)N[C@@H](CO)C(=O)N[C@@H](CC(C)C)C(=O)N[C@@H](CC(=O)O)C(=O)N[C@H](C(=O)N1CCC[C@H]1C(=O)N[C@H](C(=O)NCC(=O)N[C@@H](CC(C)C)C(=O)N[C@@H](CC(C)C)C(=O)N[C@@H](CCC(N)=O)C(=O)N[C@H](C(=O)N[C@@H](CC(C)C)C(=O)N[C@@H](CC(C)C)C(=O)N[C@@H](CCC(=O)O)C(=O)N[C@@H](CCC(N)=O)C(=O)N[C@@H](CCC(=O)O)C(=O)N[C@@H](CCCNC(=N)N)C(=O)N[C@@H](CCC(N)=O)C(=O)N[C@@H](CCCNC(=N)N)C(=O)N[C@@H](C)C(=O)N[C@@H](C)C(=O)N[C@@H](CCCNC(=N)N)C(=O)N[C@@H](CCC(=O)O)C(=O)N[C@@H](CCC(N)=O)C(=O)N[C@@H](C)C(=O)N[C@H](C(=O)N[C@H](C(=O)N[C@@H](CC(N)=O)C(=O)N[C@@H](C)C(=O)N[C@@H](CCCNC(=N)N)C(=O)N[C@H](C(=O)N[C@@H](CC(C)C)C(=O)N[C@@H](C)C(=O)N[C@@H](CCCNC(=N)N)C(=O)N[C@H](C(N)=O)C(C)C)[C@@H](C)CC)[C@@H](C)O)[C@@H](C)O)[C@@H](C)CC)[C@@H](C)CC)C(C)C)C(C)C` [compound 111] (H-IVLSLDVPIGLLQILLEQERQRAAREQATTNARILARV-NH2; N-terminus assumed): the results for the 50% effective concentration (EC50) in assay [1] and in assay [2] were 11 nM and over 100 nM, respectively.

As to `CC[C@H](C)[C@H](N)C(=O)N[C@H](C(=O)N[C@@H](CC(C)C)C(=O)N[C@@H](CO)C(=O)N[C@@H](CC(C)C)C(=O)N[C@@H](CC(=O)O)C(=O)N[C@H](C(=O)N1CCC[C@H]1C(=O)N[C@H](C(=O)NCC(=O)N[C@@H](CC(C)C)C(=O)N[C@@H](CC(C)C)C(=O)N[C@@H](CCC(N)=O)C(=O)N[C@H](C(=O)N[C@@H](CC(C)C)C(=O)N[C@@H](CC(C)C)C(=O)N[C@@H](CCC(=O)O)C(=O)N[C@@H](CCC(N)=O)C(=O)N[C@@H](C)C(=O)N[C@@H](CCCNC(=N)N)C(=O)N[C@@H](CCC(N)=O)C(=O)N[C@@H](CCCNC(=N)N)C(=O)N[C@@H](C)C(=O)N[C@@H](C)C(=O)N[C@@H](CCCNC(=N)N)C(=O)N[C@@H](CCC(=O)O)C(=O)N[C@@H](CCC(N)=O)C(=O)N[C@@H](C)C(=O)N[C@H](C(=O)N[C@H](C(=O)N[C@@H](CC(N)=O)C(=O)N[C@@H](C)C(=O)N[C@@H](CCCNC(=N)N)C(=O)N[C@H](C(=O)N[C@@H](CC(C)C)C(=O)N[C@@H](C)C(=O)N[C@@H](CCCNC(=N)N)C(=O)N[C@H](C(N)=O)C(C)C)[C@@H](C)CC)[C@@H](C)O)[C@@H](C)O)[C@@H](C)CC)[C@@H](C)CC)C(C)C)C(C)C` [compound 114] (H-IVLSLDVPIGLLQILLEQARQRAAREQATTNARILARV-NH2; N-terminus assumed), the results for the EC50 in assay [1] and in assay [2] were 3.42 nM and over 100 nM, respectively.
